In one assay the test system is S. Aureus UC ® 9213. The experiment in a line: In vitro minimum inhibitory concentration (MIC) by agar dilution, gram-positive bacteria (Table 1). The class given is cell-based. The conditions noted are these: Staphylococcus aureus, UC9213. The source says:
(§1) The oxazolidinone antibacterial agents of this invention have useful activity against a variety of microorganisms. The in vitro activity of compounds of this invention can be assessed by standard testing procedures such as the determination of minimum inhibitory concentration (MIC) by agar dilution as described in "Methods for Dilution Antimicrobial Susceptibility Tests for Bacteria That Grow Aerobically" (MFT) published January 1983 by the National Committee for Clinical Laboratory Standards, 771 East Lancaster Avenue, Villanova, Pa. 19084, USA. The activity of selected compounds of this invention against Staphylococcus aureus and Streptococcus pneumoniae are shown in Table 1.

The next assay concerns S. pneumoniae UC ® 9912. The description is as above. The class given is cell-based. To be noted: Streptococcus pneumoniae, UC9912.
Excerpt: as §1

Values after ≈ are worked out from the molar mass of the structure shown. Some results are limits rather than exact numbers.

Here are results for 22 compounds from patent US5977373A, “Thiadiazolyl and oxadiazolyl phenyl oxazolidinone antibacterial agents” (Pharmacia & Upjohn Company, priority 1998, dated 1999).

A word on the MIC: it is the lowest concentration found to suppress growth. Consider `CC(=O)NC[C@H]1CN(c2ccc(-c3nnc(C(N)=O)s3)c(F)c2)C(=O)O1` [Example 2, (S)-5-[4-[5-[(Acetylamino)methyl]-2-oxo-3-oxazolidinyl]-2-fluorophenyl]-1,3,4-thiadiazole-2-carboxamide], for which the figures for the MIC with S. Aureus UC ® 9213 and against S. pneumoniae UC ® 9912 were 0.5 µg/mL (≈ 1.32 µM) and 0.25 µg/mL (≈ 0.659 µM), respectively.

Regarding `CCCc1nnc(-c2ccc(N3C[C@H](CNC(C)=O)OC3=O)cc2F)s1` [Example 5, (S)-N-[[3-[3-Fluoro-4-(5-propyl-1,3,4-thiadiazol-2-yl)phenyl]-2-oxo-5-oxazolidinyl]methyl]acetamide], the minimal inhibitory concentration (MIC) in the assay on S. Aureus UC ® 9213 was found to be 1 µg/mL (≈ 2.64 µM); against S. pneumoniae UC ® 9912 it was 0.25 µg/mL (≈ 0.661 µM).

Turning to `COCc1nnc(-c2ccc(N3C[C@H](CNC(C)=O)OC3=O)cc2F)s1` [Example 12, (S)-N-[[3-[3-Fluoro-4-[5-(methoxymethyl)-1,3,4-thiadiazol-2-yl]phenyl]-2-oxo-5-oxazolidinyl]methyl]acetamide], the MIC in the assay with S. Aureus UC ® 9213 stood at 2 µg/mL (≈ 5.26 µM); in the assay on S. pneumoniae UC ® 9912, 0.25 µg/mL (≈ 0.657 µM).

For `CC(=O)NC[C@H]1CN(c2ccc(-c3nnc(C(F)(F)F)s3)c(F)c2)C(=O)O1` [Example 15, (S)-N-[[3-[3-Fluoro-4-[5-(trifluoromethyl)-1,3,4-thiadiazol-2-yl]phenyl]-2-oxo-5-oxazolidinyl]methyl]acetamide], the MIC came to 2 µg/mL (≈ 4.95 µM) against S. Aureus UC ® 9213 and 0.5 µg/mL (≈ 1.24 µM) against S. pneumoniae UC ® 9912.

As to `CC(=O)NC[C@H]1CN(c2ccc(-c3nnc(CCC(C)O)s3)c(F)c2)C(=O)O1` (stereo partly drawn) [Example 17, (5S)-N-[[3-[3-Fluoro-4-[5-(3-hydroxybutyl)-1,3,4-thiadiazol-2-yl]phenyl]-2-oxo-5-oxazolidinyl]methyl]acetamide], the MIC turned out to be 2 µg/mL (≈ 4.9 µM) against S. Aureus UC ® 9213 and 0.25 µg/mL (≈ 0.612 µM) against S. pneumoniae UC ® 9912.

As for `COC(=O)CCc1nnc(-c2ccc(N3C[C@H](CNC(C)=O)OC3=O)cc2F)s1` [Example 18, (S)-Methyl 5-[4-[5-[(acetylamino)methyl]-2-oxo-3-oxazolidinyl]-2-fluorophenyl]-1,3,4-thiadiazole-2-propanoate], the MIC amounted to 2 µg/mL (≈ 4.73 µM) in the assay with S. Aureus UC ® 9213 and 0.25 µg/mL (≈ 0.592 µM) in the assay on S. pneumoniae UC ® 9912.

`CC(=O)NC[C@H]1CN(c2ccc(-c3nnc(CCC(N)=O)s3)c(F)c2)C(=O)O1` [Example 19, (S)-5-[4-[5-[(Acetylamino)methyl]-2-oxo-3-oxazolidinyl]-2-fluorophenyl]-1,3,4-thiadiazole-2-propanamide]: the figures for the MIC against S. Aureus UC ® 9213 and in the assay on S. pneumoniae UC ® 9912 were 8 µg/mL (≈ 19.6 µM) and less than 0.125 µg/mL, respectively.

As to `CSCc1nnc(-c2ccc(N3C[C@H](CNC(C)=O)OC3=O)cc2F)s1` [Example 21, (S)-N-[[3-[3-Fluoro-4-[5-[(methylthio)methyl]-1,3,4-thiadiazol-2-yl]phenyl]-2-oxo-5-oxazolidinyl]methyl]acetamide], the MIC is 1 µg/mL (≈ 2.52 µM) with S. Aureus UC ® 9213 and 0.25 µg/mL (≈ 0.631 µM) with S. pneumoniae UC ® 9912.

With `CC(=O)NC[C@H]1CN(c2ccc(-c3nnc(C[S+](C)[O-])s3)c(F)c2)C(=O)O1` (stereo partly drawn) [Example 22, (S)-N-[[3-[3-Fluoro-4-[5-[(methylsulfinyl)methyl]-1,3,4-thiadiazol-2-yl]phenyl]-2-oxo-5-oxazolidinyl]methyl]acetamide], the MIC against S. Aureus UC ® 9213 turned out to be 8 µg/mL (≈ 19.4 µM); in the assay with S. pneumoniae UC ® 9912, 0.25 µg/mL (≈ 0.606 µM).

For `CSCCc1nnc(-c2ccc(N3C[C@H](CNC(C)=O)OC3=O)cc2F)s1` [Example 23, (S)-N-[[3-[3-Fluoro-4-[5-[2-(methylthio)ethyl]-1,3,4-thiadiazol-2-yl]phenyl]-2-oxo-5-oxazolidinyl]methyl]acetamide], the MIC against S. Aureus UC ® 9213 came to 1 µg/mL (≈ 2.44 µM); against S. pneumoniae UC ® 9912, 0.25 µg/mL (≈ 0.609 µM).

In the case of `CCOC(=O)Cc1nnc(-c2ccc(N3C[C@H](CNC(C)=O)OC3=O)cc2F)s1` [Example 25, (S)-Ethyl 5-[4-[5-[(acetylamino)methyl]-2-oxo-3-oxazolidinyl]-2-fluorophenyl]-1,3,4-thiadiazole-2-acetate], the results for the MIC with S. Aureus UC ® 9213 and in the assay on S. pneumoniae UC ® 9912 were 2 µg/mL (≈ 4.73 µM) and 0.25 µg/mL (≈ 0.592 µM), respectively.

In the case of `CCOC(=O)c1nnc(-c2ccc(N3C[C@H](CNC(C)=O)OC3=O)cc2F)s1` [Example 27, (S)-Ethyl 5-[4-[5-[(acetylamino)methyl]-2-oxo-3-oxazolidinyl]-2-fluorophenyl]-1,3,4-thiadiazole-2-carboxylate], the figures for the MIC against S. Aureus UC ® 9213 and against S. pneumoniae UC ® 9912 were 8 µg/mL (≈ 19.6 µM) and less than 0.125 µg/mL, respectively.

For the compound `CC(=O)NC[C@H]1CN(c2ccc(-c3nnc(CC(C)O)s3)c(F)c2)C(=O)O1` (stereo partly drawn) [Example 28, (5S)-N-[[3-[3-Fluoro-4-[5-(2-hydroxypropyl)-1,3,4-thiadiazol-2-yl]phenyl]-2-oxo-5-oxazolidinyl]methyl]acetamide], the MIC in the assay on S. Aureus UC ® 9213 stood at 2 µg/mL (≈ 5.07 µM); in the assay with S. pneumoniae UC ® 9912, 0.25 µg/mL (≈ 0.634 µM).

With `CC(=O)NC[C@H]1CN(c2ccc(-c3nnc(N)s3)c(F)c2)C(=O)O1` [Example 30, (S)-N-[[3-[4-(5-Amino-1,3,4-thiadiazol-2-yl)-3-fluorophenyl]-2-oxo-5-oxazolidinyl]methyl]acetamide], the MIC with S. Aureus UC ® 9213 is 4 µg/mL (≈ 11.4 µM); against S. pneumoniae UC ® 9912, 0.25 µg/mL (≈ 0.712 µM).

Take `CC(=O)NC[C@H]1CN(c2ccc(-c3nsc(C(N)=O)n3)c(F)c2)C(=O)O1` [Example 33, (S)-3-[4-[5-[(Acetylamino)methyl]-2-oxo-3-oxazolidinyl]-2-fluorophenyl]-1,2,4-thiadiazole-5-carboxamide]: the MIC in the assay on S. Aureus UC ® 9213 came out at 16 µg/mL (≈ 42.2 µM); with S. pneumoniae UC ® 9912, 2 µg/mL (≈ 5.27 µM).

On to `CC(=O)NC[C@H]1CN(c2ccc(-c3ncns3)c(F)c2)C(=O)O1` [Example 34, (S)-N-[[3-[3-Fluoro-4-(1,2,4-thiadiazol-5-yl)phenyl]-2-oxo-5-oxazolidinyl]methyl]acetamide], for which the results for the MIC with S. Aureus UC ® 9213 and with S. pneumoniae UC ® 9912 were 1 µg/mL (≈ 2.97 µM) and 0.25 µg/mL (≈ 0.743 µM), respectively.

In the case of `CC(=O)NC[C@H]1CN(c2ccc(-c3noc(C)n3)c(F)c2)C(=O)O1` [Example 35, (S)-N-[[3-[3-Fluoro-4-(5-methyl-1,2,4-oxadiazol-3-yl)phenyl]-2-oxo-5-oxazolidinyl]methyl]acetamide], the values for the minimal inhibitory concentration (MIC) with S. Aureus UC ® 9213 and against S. pneumoniae UC ® 9912 were 16 µg/mL (≈ 47.9 µM) and 4 µg/mL (≈ 12 µM), respectively.

As to `CC(=O)NC[C@H]1CN(c2ccc(-c3ncon3)c(F)c2)C(=O)O1` [Example 36, (S)-N-[[3-[3-Fluoro-4-(1,2,4-oxadiazol-3-yl)phenyl]-2-oxo-5-oxazolidinyl]methyl]acetamide], the MIC was determined as 4 µg/mL (≈ 12.5 µM) against S. Aureus UC ® 9213 and 1 µg/mL (≈ 3.12 µM) in the assay with S. pneumoniae UC ® 9912.

Take `CC(=O)NC[C@H]1CN(c2ccc(-c3noc(C(N)=O)n3)c(F)c2)C(=O)O1` [Example 37, (S)-3-[4-[5-[(Acetylamino)methyl]-2-oxo-3-oxazolidinyl]-2-fluorophenyl]-1,2,4-oxadiazole-5-carboxamide]: the MIC in the assay on S. Aureus UC ® 9213 is more than 16 µg/mL; with S. pneumoniae UC ® 9912, 1 µg/mL (≈ 2.75 µM).

As to `CC(=O)NC[C@H]1CN(c2ccc(-c3noc(C#N)n3)c(F)c2)C(=O)O1` [Example 38, (S)-N-[[3-[4-(5-Cyano-1,2,4-oxadiazol-3-yl)-3-fluorophenyl]-2-oxo-5-oxazolidinyl]methyl]acetamide], the MIC is more than 16 µg/mL against S. Aureus UC ® 9213 and 2 µg/mL (≈ 5.79 µM) against S. pneumoniae UC ® 9912.

With `CC(=O)NC[C@H]1CN(c2ccc(-c3noc(C(F)(F)F)n3)c(F)c2)C(=O)O1` [Example 39, (S)-N-[[3-[3-Fluoro-4-[5-(trifluoromethyl)-1,2,4-oxadiazol-3-yl]phenyl]-2-oxo-5-oxazolidinyl]methyl]acetamide], the figures for the MIC against S. Aureus UC ® 9213 and in the assay on S. pneumoniae UC ® 9912 were 16 µg/mL (≈ 41.2 µM) and 8 µg/mL (≈ 20.6 µM), respectively.

For `CC(=O)NC[C@H]1CN(c2ccc(-c3ncno3)c(F)c2)C(=O)O1` [Example 40, (S)-N-[[3-[3-Fluoro-4-(1,2,4-oxadiazol-5-yl)phenyl]-2-oxo-5-oxazolidinyl]methyl]acetamide], the MIC in the assay on S. Aureus UC ® 9213 came out at 2 µg/mL (≈ 6.24 µM); in the assay on S. pneumoniae UC ® 9912, 0.5 µg/mL (≈ 1.56 µM).
